Our source for the IC50 values is BindingDB's records for doi:10.3109/14756366.2010.491794 (Nanchang University School of Pharmaceutical Science, 2011).

Each structure is given as a SMILES string. Some results are limits rather than exact numbers.

Sequence of Cannabinoid receptor 1 (Q99NU1 whole entry): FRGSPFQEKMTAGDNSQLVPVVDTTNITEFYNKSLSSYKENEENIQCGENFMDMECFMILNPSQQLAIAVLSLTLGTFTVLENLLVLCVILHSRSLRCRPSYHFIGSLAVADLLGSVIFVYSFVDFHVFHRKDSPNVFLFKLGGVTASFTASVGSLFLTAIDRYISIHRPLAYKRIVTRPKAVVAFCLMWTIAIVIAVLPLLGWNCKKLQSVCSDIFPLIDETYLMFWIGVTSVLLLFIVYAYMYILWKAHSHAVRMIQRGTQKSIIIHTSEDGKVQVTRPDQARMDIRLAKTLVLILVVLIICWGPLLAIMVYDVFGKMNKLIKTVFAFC

This assay has as its target Cannabinoid receptor 1 (Cricetulus griseus, UniProt Q99NU1). Description: CB1 Receptor Binding Assay (In Vitro). How it is done: The target compounds were evaluated using a binding assay towards the CB1 receptor expressed on the membranes of Chinese hamster ovarian (CHO) cells. […] The potent synthetic cannabinoid agonist, [3H]-CP55940, was used as a radioligand (Figure 1). The CHO cells were incubated in 96-well microtiter plates. Various concentrations of the synthesised cannabinoid ligands were added and incubated for 10 min at 37°C. […] The cells were lysed and scintillation fluid was added. […] There were three parallels in the tests.
As a reminder, the IC50 is the concentration that inhibits the measured activity by half. `Cc1c(C(=O)NCCCN2CCCC2)nn(-c2ccc(Cl)cc2Cl)c1-c1ccc(Cl)cc1` [5-(4-Chlorophenyl)-1-(2,4-dichlorophenyl)-4-methyl-N-(3-(pyrrolidin-1-yl)propyl)-1H-pyrazole-3-carboxamide (12e)] returned an IC50 of 672 nM.

On to `Cc1c(C(=O)NCCCCN2CCCCC2)nn(-c2ccc(Cl)cc2Cl)c1-c1ccc(Cl)cc1` [5-(4-Chlorophenyl)-1-(2,4-dichlorophenyl)-4-methyl-N-(4-(piperidin-1-yl)butyl)-1H-pyrazole-3-carboxamide (12f)], for which the IC50 is > 1000 nM.

Turning to `Cc1c(C(=O)NN2CCN(C)CC2)nn(-c2ccc(Cl)cc2Cl)c1-c1ccc(Cl)cc1` [5-(4-Chlorophenyl)-1-(2,4-dichlorophenyl)-4-methyl-N-(4-methylpiperazin-1-yl)-1H-pyrazole-3-carboxamide (12a)], the IC50 is 173 nM.

In the case of `COc1ccc2ccc(CCNC(=O)c3nn(-c4ccc(Cl)cc4Cl)c(-c4ccc(Cl)cc4)c3C)cc2c1` [5-(4-Chlorophenyl)-1-(2,4-dichlorophenyl)-4-methyl-N-[2-(7-methoxynaphthalen-2-yl)ethyl]-1H-pyrazol-3-carboxamide (12g)], the IC50 is 398 nM.

Turning to `Cc1c(C(=O)NCCCN2CCOCC2)nn(-c2ccc(Cl)cc2Cl)c1-c1ccc(Cl)cc1` [5-(4-Chlorophenyl)-1-(2,4-dichlorophenyl)-4-methyl-N-[3-(4-morpholinyl)propyl]-1H-pyrazole-3-carboxamide (12b)], the 50% inhibitory concentration (IC50) stood at 455 nM. This IC50 and that of the compound before are within 1.5-fold of each other.

As to `CCN(CC)CCCNC(=O)c1nn(-c2ccc(Cl)cc2Cl)c(-c2ccc(Cl)cc2)c1C` [5-(4-Chlorophenyl)-1-(2,4-dichlorophenyl)-4-methyl-N-[3-(N,N-diethylamino)propyl]-1H-pyrazol-3-carboxamide (12c)], the IC50 was > 1000 nM.

For `Cc1c(C(=O)NC2CCC(C)CC2)nn(-c2ccccn2)c1-c1ccc(Cl)cc1` (centres undefined) [5-(4-Chlorophenyl)-4-methyl-1-(pyridin-2-yl)-N-(4-methylcyclohexyl)-1H-pyrazole-3-carboxamide (12j)], the IC50 worked out at 612 nM.

Compound `Cc1c(C(=O)NN2CCCCCC2)nn(-c2ccccn2)c1-c1ccc(Cl)cc1` [5-(4-Chlorophenyl)-4-methyl-1-(pyridin-2-yl)-N-(azepan-1-yl)-1H-pyrazole-3-carboxamide (12i)] displayed an IC50 of 382 nM. Against the preceding compound, the IC50 is about 1.6-fold lower.

`Cc1c(C(=O)NN2CCCCC2)nn(-c2ccccn2)c1-c1ccc(Cl)cc1` [5-(4-Chlorophenyl)-4-methyl-1-(pyridin-2-yl)-N-(piperidin-1-yl)-1H-pyrazole-3-carboxamide (12h)]: the IC50 was 510 nM.

For the compound `Cc1c(C(=O)NC2CCC(C)CC2)nn(-c2ccc(C(F)(F)F)cc2)c1-c1ccc(Cl)cc1` (centres undefined) [5-(4-Chlorophenyl)-4-methyl-1-[4-(trifluoromethyl)phenyl]-N-(4-methylcyclohexyl)-1H-pyrazole-3-carboxamide (12m)], the IC50 is 79 nM.

In the case of `Cc1c(C(=O)NN2CCCCCC2)nn(-c2ccc(C(F)(F)F)cc2)c1-c1ccc(Cl)cc1` [5-(4-Chlorophenyl)-4-methyl-1-[4-(trifluoromethyl)phenyl]-N-(azepan-1-yl)-1H-pyrazole-3-carboxamide (12l)], the IC50 is 98.3 nM. The IC50 values of the last two compounds are within 1.5-fold of each other.

On to `Cc1c(C(=O)NN2CCCCC2)nn(-c2ccc(C(F)(F)F)cc2)c1-c1ccc(Cl)cc1` [5-(4-Chlorophenyl)-4-methyl-1-[4-(trifluoromethyl)phenyl]-N-(piperidin-1-yl)-1H-pyrazole-3-carboxamide (12k)], for which the IC50 was determined as 93.4 nM.

As to `Cc1c(C(=O)NC2CCC(C)CC2)nn(-c2ccc(Cl)cc2Cl)c1-c1ccc(Cl)cc1` (centres undefined) [5-(4-chlorophenyl)-1-(2,4-dichlorophenyl)-4-methyl-N-(4-methylcyclohexyl)-1H-pyrazol-3-carboxamide (12d)], the IC50 was found to be 4.31 nM. Compared with the last compound, the IC50 is about 22-fold lower.

`Cc1c(CN(CC(=O)O)Cc2nn(-c3ccc(Cl)cc3Cl)c(-c3ccc(Cl)cc3)c2C)nn(-c2ccc(Cl)cc2Cl)c1-c1ccc(Cl)cc1` [[2-Bis-[[5-(4-chlorophenyl)-1-(2,4-dichlorophenyl)-4-methyl-1H-pyrazol-3-yl]methyl]amino] acetic acid (13c)] displayed an IC50 of 516 nM.
